Experimental data from ChEMBL document CHEMBL5338738, “Discovery of Novel Sesquiterpene Lactone Derivatives as Potent PKM2 Activators for the Treatment of Ulcerative Colitis” (J Med Chem, 2023).
pEC50: −log10 of the molar value. Activity calls are given as the source filed them. No cut-off for these calls is given here.

Assays:
[1] = target: Pyruvate kinase PKM (Homo sapiens, UniProt P14618); test: Activation of PKM2 (unknown origin) incubated for 30 mins
[2] = tested on: Mus musculus; test: Anti-colitis activity against TNBS-induced ulcerative colitis BALB/c mouse model assessed as decrease in crypt necrosis in colon at 12.5 to 25 mg/kg, po for consecutive 7 days by H and E staining based microscopy; type: functional, organism-based; conditions: dose 12.5-25 mg/kg, time 7.0 day
[3] = Clearance in Sprague-Dawley rat at 8 mg/kg,iv and measured upto 24 hrs by LC-MS/MS analysis; type: ADME, organism-based; conditions: in vivo
[4] = Microsomal stability in rat liver microsomes assessed as hepatic clearance; type: ADME, Microsome
[5] = Inhibition of Th17 cells differentiation in anti-CD3/CD28 stimulated C57BL/6 mouse mesenteric lymph node CD4+ve Th cells assessed as decrease in proportion of IL17A-positive Th17 cells at 0.3 uM incubated for 96 hrs in presence of recombinant human TGF-beta, recombinant mouse IL-6 and recombinant mouse IL-23 by flow cytometry (Rvb= 16.7%); type: functional; conditions: C57BL/6, CD4+ve Th
[6] = tested on: CD4+ve Th; test: Cytotoxicity against C57BL/6 mouse mesenteric lymph node CD4+ve Th cells assessed as reduction in cell proliferation at 0.3 to 3 uM incubated for 96 hrs by CCK-8 assay; type: toxicity, cell-based; conditions: dose 0.3-3 µM
[7] = MRT(t) in Sprague-Dawley rat at 8 mg/kg,iv and measured upto 24 hrs by LC-MS/MS analysis; type: ADME, organism-based; conditions: in vivo
[8] = tested on: Mus musculus; test: Anti-colitis activity against TNBS-induced ulcerative colitis BALB/c mouse model assessed as decrease in mucosal damage in colon at 12.5 to 25 mg/kg, po for consecutive 7 days by H and E staining based microscopy; type: functional, organism-based; conditions: dose 12.5-25 mg/kg, time 7.0 day
[9] = tested on: CD4+ve Th; test: (§1) Inhibition of Th17 cells differentiation in anti-CD3/CD28 stimulated C57BL/6 mouse mesenteric lymph node CD4+ve Th cells assessed as downregulation of IL23r mRNA expression level at 0.1 to 3 uM incubated for 96 hrs in presence of recombinant human TGF-beta, recombinant mouse IL-6 and recombinant mouse IL-23 by qPCR analysis; type: functional, cell-based; conditions: dose 0.1-3 µM
[10] = tested on: CD4+ve Th; test: as §1, with “IL21” for “IL23r”; type: functional, cell-based; conditions: dose 0.1-3 µM
[11] = tested on: CD4+ve Th; test: as §1, with “IL22” for “IL23r”; type: functional, cell-based; conditions: dose 0.1-3 µM
[12] = Toxicity in C57BL/6 mouse assessed as histological change in liver at 6.25 to 25 mg/kg, po for 10 days consecutively by H and E staining based microscopy; type: organism-based; conditions: in vivo, 240 h, dose 6.25-25 mg/kg, time 10 day
[13] = tested on: CD4+ve Th; test: as §1, with “aerobic glycolysis” for “Th17 cells differentiation”, “HK2 protein” for “IL23r mRNA”, “0.3” for “0.1”, “Western blot” for “qPCR”; type: functional, cell-based; conditions: dose 0.3-3 µM
[14] = Inhibition of Treg cells differentiation in anti-CD3/CD28 stimulated C57BL/6 mouse mesenteric lymph node CD4+ve Th cells assessed as decrease in proportion of Foxp3-positive Treg cells at 0.3 uM incubated for 96 hrs in presence of recombinant human TGF-beta by flow cytometry (Rvb= 21.1%); type: functional; conditions: C57BL/6, CD4+ve Th
[15] = Tmax in Sprague-Dawley rat at 8 mg/kg,iv and measured upto 24 hrs by LC-MS/MS analysis; type: ADME, organism-based; conditions: in vivo
[16] = AUCt in Sprague-Dawley rat at 8 mg/kg,iv and measured upto 24 hrs by LC-MS/MS analysis; type: ADME, organism-based; design: time < 24 hrs, dose 8 mg/kg, route iv; conditions: in vivo
[17] = Toxicity in C57BL/6 mouse assessed as body weight change at 6.25 to 25 mg/kg, po for 10 days consecutively; type: organism-based; conditions: in vivo, 240 h, dose 6.25-25 mg/kg, time 10 day
[18] = Half life in Sprague-Dawley rat at 8 mg/kg,iv and measured upto 24 hrs by LC-MS/MS analysis; type: ADME, organism-based; conditions: in vivo
[19] = tested on: CD4+ve Th; test: Cytotoxicity against C57BL/6 mouse mesenteric lymph node CD4+ve Th cells assessed as reduction in cell viability at 0.3 to 3 uM incubated for 96 hrs by MTT assay; type: toxicity, cell-based; conditions: dose 0.3-3 µM
[20] = Half life in Sprague-Dawley rat at 75 mg/kg,po and measured upto 24 hrs by LC-MS/MS analysis; type: ADME, organism-based; conditions: in vivo
[21] = tested on: Mus musculus; test: Anti-colitis activity against DSS-induced ulcerative colitis C57BL/6 mouse model assessed as reduction in histological score in colon at 12.5 to 25 mg/kg, po for 10 days consecutively by H and E staining based microscopic analysis; type: functional, organism-based; conditions: dose 12.5-25 mg/kg, time 10.0 day
[22] = tested on: Mus musculus; test: Anti-colitis activity against DSS-induced ulcerative colitis C57BL/6 mouse model assessed as decrease in IL-6 mRNA expression level in colon at 12.5 to 25 mg/kg, po for 10 days consecutively by qPCR analysis; type: functional, organism-based; conditions: dose 12.5-25 mg/kg, time 10.0 day
[23] = tested on: CD4+ve Th; test: Inhibition of aerobic glycolysis in anti-CD3/CD28 stimulated C57BL/6 mouse mesenteric lymph node CD4+ve Th cells assessed as reduction in glucose uptake level at 0.3 to 3 uM incubated for 96 hrs in presence of recombinant human TGF-beta, recombinant mouse IL-6 and recombinant mouse IL-23 by NBDG staining based immunofluorescence analysis; type: functional, cell-based; conditions: dose 0.3-3 µM
[24] = tested on: Mus musculus; test: Anti-colitis activity against DSS-induced ulcerative colitis C57BL/6 mouse model assessed as downregulation of IL17a mRNA expression level in mesenteric lymph nodes at 12.5 to 25 mg/kg, po for 10 days consecutively by qPCR assay; type: functional, organism-based; conditions: dose 12.5-25 mg/kg, time 10.0 day
[25] = tested on: CD4+ve Th; test: as §1, with “RORC” for “IL23r”; type: functional, cell-based; conditions: dose 0.1-3 µM
[26] = Inhibition of Treg cells differentiation in anti-CD3/CD28 stimulated C57BL/6 mouse mesenteric lymph node CD4+ve Th cells assessed as decrease in proportion of Foxp3-positive Treg cells at 1 uM incubated for 96 hrs in presence of recombinant human TGF-beta by flow cytometry (Rvb= 21.1%); type: functional; conditions: C57BL/6, CD4+ve Th
[27] = Cmax in Sprague-Dawley rat at 8 mg/kg,iv and measured upto 24 hrs by LC-MS/MS analysis; type: ADME, organism-based; design: time < 24 hrs, dose 8 mg/kg, route iv; conditions: in vivo
[28] = tested on: CD4+ve Th; test: as §1, with “aerobic glycolysis” for “Th17 cells differentiation”, “Glut1” for “IL23r”, “0.3” for “0.1”; type: functional, cell-based; conditions: dose 0.3-3 µM
[29] = tested on: CD4+ve Th; test: as §1, with “decrease in total PKM2” for “downregulation of IL23r mRNA”, “expression” for “expression level”, “Western blot” for “qPCR”; type: functional, cell-based; conditions: dose 0.1-3 µM
[30] = tested on: Mus musculus; test: Anti-colitis activity against TNBS-induced ulcerative colitis BALB/c mouse model assessed as increase in survival rate at 12.5 to 25 mg/kg, po for consecutive 7 days; type: functional, organism-based; conditions: dose 12.5-25 mg/kg, time 7.0 day
[31] = Oral bioavailability in Sprague-Dawley rat at 75 mg/kg and measured upto 24 hrs by LC-MS/MS analysis; type: ADME, organism-based; conditions: in vivo
[32] = tested on: Mus musculus; test: Anti-colitis activity against TNBS-induced ulcerative colitis BALB/c mouse model assessed as increase in colon length at 12.5 to 25 mg/kg, po for consecutive 7 days; type: functional, organism-based; conditions: dose 12.5-25 mg/kg, time 7.0 day
[33] = tested on: Mus musculus; test: Anti-colitis activity against DSS-induced ulcerative colitis C57BL/6 mouse model assessed as reduction in mucosal damage in colon at 12.5 to 25 mg/kg, po for 10 days consecutively by H and E staining based microscopic analysis; type: functional, organism-based; conditions: dose 12.5-25 mg/kg, time 10.0 day

Chain of Pyruvate kinase PKM (P14618 whole entry): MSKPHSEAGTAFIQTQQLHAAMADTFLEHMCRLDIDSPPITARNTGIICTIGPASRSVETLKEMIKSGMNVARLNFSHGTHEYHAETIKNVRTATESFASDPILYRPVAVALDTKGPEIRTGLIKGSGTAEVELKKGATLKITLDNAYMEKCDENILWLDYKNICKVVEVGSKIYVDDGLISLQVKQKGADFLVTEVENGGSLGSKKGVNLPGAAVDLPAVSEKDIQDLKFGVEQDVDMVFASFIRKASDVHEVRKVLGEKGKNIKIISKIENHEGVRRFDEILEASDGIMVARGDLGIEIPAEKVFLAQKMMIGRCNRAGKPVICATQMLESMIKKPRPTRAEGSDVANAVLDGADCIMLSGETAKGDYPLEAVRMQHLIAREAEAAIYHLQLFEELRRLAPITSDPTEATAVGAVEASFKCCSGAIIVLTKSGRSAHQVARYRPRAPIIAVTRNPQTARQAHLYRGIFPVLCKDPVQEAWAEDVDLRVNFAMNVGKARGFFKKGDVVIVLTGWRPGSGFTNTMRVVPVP

Question: Which results are given for `C=C1C(=O)O[C@H]2[C@H]1CC[C@@]1(C)[C@@H](CC[C@@]3(C)O[C@@H]23)C1(F)F`?
Answer: pEC50 [1]: 6.69; Activity [2]: Active; clearance [3]: 103 mL/min/kg; CLhep predicted [4]: 43.1 mL/min/kg; IL17A+ cells at 0.3 µM [5]: 12.4%; Activity [6]: Non-Toxic; MRT last at 24 h [7]: 5 h; Activity [8]: Active; inhibition [9]: Active; inhibition [10]: Active; inhibition [11]: Active; Activity [12]: Non-Toxic; inhibition [13]: Active; Foxp3+ cells at 0.3 µM [14]: 18.4%; Tmax [15]: 4.98 min; AUC(0-t) at 24 h [16]: 1230 ng·h/mL; Activity [17]: Non-Toxic; half-life [18]: 120 min; Activity [19]: Non-Toxic; half-life [20]: 480 min; Activity [21]: Active; Activity [22]: Active; inhibition [23]: Active; Activity [24]: Active; inhibition [25]: Active; Foxp3+ cells at 1 µM [26]: 22.8%; Cmax [27]: 190 ng/mL; inhibition [28]: Active; inhibition [29]: Active; Activity [30]: Active; bioavailability [31]: 2.8%; Activity [32]: Active; Activity [33]: Active
